Assay [1] deals with MV4-11 cells (FLT3-ITD+/+). The assay is described as follows: Inhibition of cell proliferation by MTT experiment, MV4-11. The assay is classed as cell-based, human. Conditions: Homo sapiens, MV4-11; MTT, 72 h; read-out: IC50 value on cell proliferation inhibition, MV4-11 FLT3-ITD+/+. The method in brief: (§1)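 MTT assay in MV4-11, MOLM-13 (FLT3-ITD) and SET-2 (JAK2 V617F) cells at 10,000–15,000 cells/well in IMDM with 10% FBS. Cells are exposed to compound for 72 h at 37 °C, then to MTT for 1–3 h. IC50 is fitted from inhibition rates across concentrations.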

The subject of assay [2] is MOLM-13 cells (FLT3-ITD-/+). The assay is described as follows: Inhibition of cell proliferation by MTT experiment, MOLM-13. Format: cell-based, human. As to conditions: Homo sapiens, MOLM-13; MTT, 72 h; read-out: IC50 value on cell proliferation inhibition, MOLM-13 FLT3-ITD-/+. A digest of the protocol: as §1
A further assay has as its system SET-2 cells (JAK2 V617F). The assay is described as follows: Inhibition of cell proliferation by MTT experiment, SET-2. The assay is classed as cell-based. Conditions: Homo sapiens, SET-2; MTT, 72 h; read-out: IC50 value on cell proliferation inhibition, SET-2 (V617F). The method in brief:
as §1

A further assay deals with T1, FLT3 (Homo sapiens, UniProt P36888).
T1 construct: purchased Eurofins
T1 sequence (P36888 27-993): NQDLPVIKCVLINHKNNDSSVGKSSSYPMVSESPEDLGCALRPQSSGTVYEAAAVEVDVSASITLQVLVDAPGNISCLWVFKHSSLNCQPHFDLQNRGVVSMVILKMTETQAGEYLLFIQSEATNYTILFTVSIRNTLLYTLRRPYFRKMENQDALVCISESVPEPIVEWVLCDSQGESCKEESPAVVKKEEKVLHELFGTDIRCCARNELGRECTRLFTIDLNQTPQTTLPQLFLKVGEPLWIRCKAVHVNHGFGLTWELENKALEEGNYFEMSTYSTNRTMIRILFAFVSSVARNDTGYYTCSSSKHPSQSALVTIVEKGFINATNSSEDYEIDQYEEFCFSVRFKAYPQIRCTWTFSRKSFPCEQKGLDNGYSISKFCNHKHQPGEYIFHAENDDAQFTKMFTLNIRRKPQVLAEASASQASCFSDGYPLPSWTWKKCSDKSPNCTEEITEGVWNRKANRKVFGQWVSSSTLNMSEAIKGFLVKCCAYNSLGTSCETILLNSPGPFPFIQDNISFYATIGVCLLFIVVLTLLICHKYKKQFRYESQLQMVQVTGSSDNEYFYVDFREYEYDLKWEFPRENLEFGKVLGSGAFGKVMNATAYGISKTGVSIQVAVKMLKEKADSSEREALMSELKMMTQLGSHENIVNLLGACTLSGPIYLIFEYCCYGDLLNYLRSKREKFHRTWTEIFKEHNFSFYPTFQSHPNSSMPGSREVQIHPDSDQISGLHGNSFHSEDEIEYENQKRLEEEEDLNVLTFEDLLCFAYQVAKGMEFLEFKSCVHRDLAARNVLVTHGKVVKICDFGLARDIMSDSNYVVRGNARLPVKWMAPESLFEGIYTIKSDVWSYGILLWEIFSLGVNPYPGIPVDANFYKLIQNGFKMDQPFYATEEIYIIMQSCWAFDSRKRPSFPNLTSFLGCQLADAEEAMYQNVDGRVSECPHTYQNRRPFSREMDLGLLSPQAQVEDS
The assay is described as follows: In vitro kinase activity experiment, FLT3. The assay is classed as biochemical. As to conditions: 40 min; inhibition rate of enzyme at 500 nM; measured by Eurofins; read-out: Kinase activity @ 500 nM (%) FLT3. The method in brief:
(§2)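 Reactions began on MgATP addition after the kinase, substrate, γ33P-ATP, 10 mM magnesium acetate and compound series were mixed in MOPS buffer pH 7.0 with EDTA and MnCl2. After 40 min at room temperature, phosphate quench, filter-mat capture and washing, incorporated 33P was measured by scintillation counting.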

A further assay concerns the target T2, JAK2 (Homo sapiens, UniProt O60674).
T2 construct: purchased Eurofins
The assay is described as follows: In vitro kinase activity experiment, JAK2. The assay is classed as biochemical. Conditions: inhibition rate of enzyme at 500 nM; measured by Eurofins. The method in brief: as §2

T2 sequence (O60674 whole entry): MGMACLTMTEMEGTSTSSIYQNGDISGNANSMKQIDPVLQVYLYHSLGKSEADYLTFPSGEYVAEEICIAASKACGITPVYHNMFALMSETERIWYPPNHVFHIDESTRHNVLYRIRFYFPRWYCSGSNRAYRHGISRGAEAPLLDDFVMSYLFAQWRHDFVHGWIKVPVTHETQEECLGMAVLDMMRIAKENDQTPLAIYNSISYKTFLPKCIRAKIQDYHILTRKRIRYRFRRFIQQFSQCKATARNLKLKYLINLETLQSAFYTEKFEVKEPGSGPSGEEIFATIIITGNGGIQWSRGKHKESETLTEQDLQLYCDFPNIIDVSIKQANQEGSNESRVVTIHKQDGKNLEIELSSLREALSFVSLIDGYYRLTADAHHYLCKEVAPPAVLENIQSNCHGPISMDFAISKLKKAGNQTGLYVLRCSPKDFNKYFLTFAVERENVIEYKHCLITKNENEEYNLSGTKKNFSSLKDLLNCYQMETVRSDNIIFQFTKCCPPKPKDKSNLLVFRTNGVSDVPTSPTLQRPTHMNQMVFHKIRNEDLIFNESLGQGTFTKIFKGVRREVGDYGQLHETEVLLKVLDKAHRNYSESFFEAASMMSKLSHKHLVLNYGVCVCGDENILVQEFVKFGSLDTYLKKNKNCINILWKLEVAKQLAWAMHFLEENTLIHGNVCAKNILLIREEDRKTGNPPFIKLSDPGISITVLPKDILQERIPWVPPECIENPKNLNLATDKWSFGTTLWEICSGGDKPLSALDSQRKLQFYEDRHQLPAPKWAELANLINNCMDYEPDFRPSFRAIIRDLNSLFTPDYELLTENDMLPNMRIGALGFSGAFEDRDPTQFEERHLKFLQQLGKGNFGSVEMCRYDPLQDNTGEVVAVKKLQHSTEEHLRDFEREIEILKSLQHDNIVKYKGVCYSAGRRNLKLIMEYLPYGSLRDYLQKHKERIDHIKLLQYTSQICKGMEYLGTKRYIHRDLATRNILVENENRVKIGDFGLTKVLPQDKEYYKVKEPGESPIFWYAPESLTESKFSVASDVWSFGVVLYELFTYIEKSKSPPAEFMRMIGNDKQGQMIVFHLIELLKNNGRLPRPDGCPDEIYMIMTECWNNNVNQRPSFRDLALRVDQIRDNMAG

`Cc1cnc(Nc2ccc(N3CCC(NCCO)CC3)c(F)c2)nc1-c1cnn(C(C)C)c1` [CLJ-43, 5-methyl-N-(3-fluoro-4-(4-hydroxyethylaminopiperidine-1-yl)phenyl)-4-(1-isopropyl-1H-pyrazole-4-yl) pyrimidine-2-amine]: the figures for the IC50 (in assay [1]; in assay [2]; in the assay with SET-2 cells (JAK2 V617F)) were 10 to 100 nM, 100 to 1000 nM and 100 to 1000 nM, respectively. For the same compound, the inhibition at 0.5 µM on FLT3 came to 94%. In addition, on JAK2, the “Kinase activity @ 500 nM (%) JAK2” value is listed as 95%.

Consider `Cc1cnc(Nc2ccc(N3CCC(N(C)CCCO)CC3)c(F)c2)nc1-c1cnn(C(C)C)c1` [CLJ-45, 5-methyl-N-(3-fluoro-4-(4-N-hydroxypropyl-4-N-methylaminopiperidine-1-yl)phenyl)-4-(1-isopropyl-1H-pyrazole-4-yl) pyrimidine-2-amine], for which the IC50 lay in the range of 1 to 10 nM in assay [1], 10 to 100 nM in assay [2] and 100 to 1000 nM in the assay with SET-2 cells (JAK2 V617F). Besides, on FLT3, the inhibition at 0.5 µM is 98%. Further, at JAK2, the “Kinase activity @ 500 nM (%) JAK2” value is 91%.

For the compound `Cc1cnc(Nc2ccc(N3CCC(N(C)CCCCO)CC3)c(F)c2)nc1-c1cnn(C(C)C)c1` [CLJ-46, 5-methyl-N-(3-fluoro-4-(4-N-hydroxybutyl-4-N-methylaminopiperidine-1-yl)phenyl)-4-(1-isopropyl-1H-pyrazole-4-yl) pyrimidine-2-amine], the IC50 in assay [1] was 1 to 10 nM; in assay [2], 10 to 100 nM; in the assay on SET-2 cells (JAK2 V617F), 100 to 1000 nM. Further, the inhibition at 0.5 µM at FLT3 is 98%. Moreover, the “Kinase activity @ 500 nM (%) JAK2” value at JAK2 came out at 102%.

As for `Cc1cnc(Nc2ccc(N3CCC(N(C)CCCCCO)CC3)c(F)c2)nc1-c1cnn(C(C)C)c1` [CLJ-47, 5-methyl-N-(3-fluoro-4-(4-N-hydroxypentyl-4-N-methylaminopiperidine-1-yl)phenyl)-4-(1-isopropyl-1H-pyrazole-4-yl) pyrimidine-2-amine], the figures for the IC50 (in assay [1]; in assay [2]; in the assay on SET-2 cells (JAK2 V617F)) were 1 to 10 nM, 10 to 100 nM and 100 to 1000 nM, respectively. Besides, on FLT3, the inhibition at 0.5 µM turned out to be 94%. Besides, on JAK2, the “Kinase activity @ 500 nM (%) JAK2” value is recorded as 93%.

For `CCOCCN(C)C1CCN(c2ccc(Nc3ncc(C)c(-c4cnn(C(C)C)c4)n3)cc2F)CC1` [CLJ-48, 5-methyl-N-(3-fluoro-4-(4-N-ethoxyethyl-4-N-methylaminopiperidine-1-yl)phenyl)-4-(1-isopropyl-1H-pyrazole-4-yl) pyrimidine-2-amine], the IC50 (in assay [1]; in assay [2]; in the assay on SET-2 cells (JAK2 V617F)) was 100 to 1000 nM throughout. Moreover, the inhibition at 0.5 µM on FLT3 is 96%. In addition, at JAK2, the “Kinase activity @ 500 nM (%) JAK2” value is listed as 93%.

As to `CCCN(C)C1CCN(c2ccc(Nc3ncc(C)c(-c4cnn(C(C)C)c4)n3)cc2F)CC1` [CLJ-49, 5-methyl-N-(3-fluoro-4-(4-N-propyl-4-N-methylaminopiperidine-1-yl)phenyl)-4-(1-isopropyl-1H-pyrazole-4-yl) pyrimidine-2-amine], the IC50 (in assay [1]; in assay [2]; with SET-2 cells (JAK2 V617F)) was 100 to 1000 nM in each case. The inhibition at 0.5 µM on FLT3 came out at 91%. The “Kinase activity @ 500 nM (%) JAK2” value at JAK2 is reported as 95%.

In the case of `CCCCN(C)C1CCN(c2ccc(Nc3ncc(C)c(-c4cnn(C(C)C)c4)n3)cc2F)CC1` [CLJ-50, 5-methyl-N-(3-fluoro-4-(4-N-butyl-4-N-methylaminopiperidine-1-yl)phenyl)-4-(1-isopropyl-1H-pyrazole-4-yl) pyrimidine-2-amine], the IC50 is 100 to 1000 nM in assay [1], more than 1000 nM in assay [2] and more than 1000 nM in the assay on SET-2 cells (JAK2 V617F). Also, the inhibition at 0.5 µM at FLT3 stood at 90%. Also, the “Kinase activity @ 500 nM (%) JAK2” value on JAK2 worked out at 89%.

For the compound `CCCCCCN(C)C1CCN(c2ccc(Nc3ncc(C)c(-c4cnn(C(C)C)c4)n3)cc2F)CC1` [CLJ-51, 5-methyl-N-(3-fluoro-4-(4-N-hexyl-4-N-methylaminopiperidine-1-yl)phenyl)-4-(1-isopropyl-1H-pyrazole-4-yl) pyrimidine-2-amine], the IC50 in assay [1] fell in the range of 100 to 1000 nM; in assay [2], 1 to 10 nM; in the assay on SET-2 cells (JAK2 V617F), 100 to 1000 nM. The inhibition at 0.5 µM at FLT3 came out at 93%. On JAK2, the “Kinase activity @ 500 nM (%) JAK2” value was determined as 95%.

For `Cc1cnc(Nc2ccc(N3CCC(N(C)CC4CCCO4)CC3)c(F)c2)nc1-c1cnn(C(C)C)c1` (stereo not shown) [CLJ-53, N-(3-fluoro-4-(4-(methyl((tetrahydrofuran-2-yl)methyl)amino)piperidine-1-yl)phenyl)-4-(1-isopropyl-1H-pyrazole-4-yl)-5-methylpyrimidine-2-amine], the IC50 in assay [1] fell in the range of 1 to 10 nM; in assay [2] it was 10 to 100 nM; with SET-2 cells (JAK2 V617F), 100 to 1000 nM. In addition, the inhibition at 0.5 µM at FLT3 stood at 98%. Further, the “Kinase activity @ 500 nM (%) JAK2” value at JAK2 is 100%.

For `Cc1cnc(Nc2ccc(N3CCC(N(C)CCN4CCOCC4)CC3)c(F)c2)nc1-c1cnn(C(C)C)c1` [CLJ-54, N-(3-fluoro-4-(4-(methyl (2-morpholinoethyl)amino)piperidine-1-yl)phenyl)-4-(1-isopropyl-1H-pyrazole-4-yl)-5-methylpyrimidine-2-amine], the IC50 (in assay [1]; in assay [2]; in the assay with SET-2 cells (JAK2 V617F)) was more than 1000 nM each time. Further, on FLT3, the inhibition at 0.5 µM is 23%. For the same compound, the “Kinase activity @ 500 nM (%) JAK2” value on JAK2 is 17%.

As for `Cc1cnc(Nc2ccc(N3CCC(N(C)CCN4CCCCC4)CC3)c(F)c2)nc1-c1cnn(C(C)C)c1` [CLJ-55, N-(3-fluoro-4-(4-(methyl (1-piperidylethyl)amino)piperidine-1-yl)phenyl)-4-(1-isopropyl-1H-pyrazole-4-yl)-5-methylpyrimidine-2-amine], the IC50 (in assay [1]; in assay [2]; in the assay with SET-2 cells (JAK2 V617F)) was more than 1000 nM in each case. For the same compound, the inhibition at 0.5 µM on FLT3 amounted to 20%. Further, the “Kinase activity @ 500 nM (%) JAK2” value on JAK2 is recorded as 25%.

With `Cc1cnc(Nc2ccc(N3CCC(N(C)CCN4CCN(C)CC4)CC3)c(F)c2)nc1-c1cnn(C(C)C)c1` [CLJ-56, N-(3-fluoro-4-(4-(methyl (4-methyl-1-piperazine ethyl)amino)piperidine-1-yl)phenyl)-4-(1-isopropyl-1H-pyrazole-4-yl)-5-methylpyrimidine-2-amine], the results for the IC50 (in assay [1]; in assay [2]; in the assay with SET-2 cells (JAK2 V617F)) were 10 to 100 nM, 10 to 100 nM and 100 to 1000 nM, respectively. The inhibition at 0.5 µM on FLT3 amounted to 96%. The “Kinase activity @ 500 nM (%) JAK2” value at JAK2 worked out at 99%.

On to `CCCN1CCN(CCN(C)C2CCN(c3ccc(Nc4ncc(C)c(-c5cnn(C(C)C)c5)n4)cc3F)CC2)CC1` [CLJ-57, N-(3-fluoro-4-(4-(methyl (4-propyl-1-piperazine ethyl)amino)piperidine-1-yl)phenyl)-4-(1-isopropyl-1H-pyrazole-4-yl)-5-methylpyrimidine-2-amine], for which the IC50 in assay [1] is 1 to 10 nM; in assay [2], 10 to 100 nM; in the assay with SET-2 cells (JAK2 V617F), 100 to 1000 nM. For the same compound, the inhibition at 0.5 µM on FLT3 came out at 96%. Also, the “Kinase activity @ 500 nM (%) JAK2” value on JAK2 is given as 97%.

For the compound `Cc1cnc(Nc2ccc(N3CCC(N(C)CCN4CCN(C(C)C)CC4)CC3)c(F)c2)nc1-c1cnn(C(C)C)c1` [CLJ-58, N-(3-fluoro-4-(4-(methyl (4-isopropyl-1-piperazine ethyl)amino)piperidine-1-yl)phenyl)-4-(1-isopropyl-1H-pyrazole-4-yl)-5-methylpyrimidine-2-amine], the results for the IC50 (in assay [1]; in assay [2]; in the assay with SET-2 cells (JAK2 V617F)) were 1 to 10 nM, 10 to 100 nM and 100 to 1000 nM, respectively. Moreover, the inhibition at 0.5 µM on FLT3 worked out at 96%. Also, the “Kinase activity @ 500 nM (%) JAK2” value at JAK2 is reported as 95%.

Source of the values: patent US12428394B2, “2,4-disubstituted pyrimidine derivative, preparation method therefor and use thereof” (CHENGDU ZENITAR BIOMEDICAL TECHNOLOGY CO., LTD., priority 2019, dated 2025).
